Where a name gives a salt, the structure may show the parent alone.
How the values were obtained:
[1] = molecular target: T1, HCV NS5BΔ21/Gal4-DBD fusion protein (Hepatitis C virus genotype 1b, UniProt Q9WMX2); experiment: 3D-SCREEN assay (NS5B reporter gene assay in Huh-7 cells); format: cell-based, HCV genotype 1b
T1 construct: The protein was expressed with a 21 amino acid C-terminal deletion to remove transmembrane domain; expressed in transfected cells; host or cells: Huh-7 (transient transfection)
Experimental: Human Hepatoma Huh-7 cell line was maintained in DMEM/HAMF-12 supplemented with 10% SVF, 4 mM glutamine, […] Na pyruvate, 1% penistreptomycine. HCV replicon containing Huh-7 cell lines Huh-9.13 and Luc Neo ET (Reblikon) were maintained in DMEM supplemented with 10% SVF, 2 mM glutamine, and 1×NEAA, 100 U/ml penicillin, and 100 μg/ml streptomycine. Replicon cells were maintained in medium supplemented with 1 mg/ml G418 for replicon Huh-9.13 and 0.5 mg/ml for Luc Neo et replicon unless indicated otherwise. Huh-7 and HCV replicon cell lines were maintained at 37° C. and 5% CO2 in a humidified atmosphere. Cells were dissociated at sub confluence with trypsin EDTA 1×.
cDNA encoding HCV NS5B genotype 1b, was cloned in frame with Gal4-DNA Binding Domain. The protein was expressed with a 21 amino acid C-terminal deletion to remove transmembrane domain. Expression of NS5BΔ21/Gal4 DBD fusion protein was under control of SV40 early promoter. 3D-Sensor peptide was cloned in frame with VP16 activation domain. Expression of 3D-Sensor/VP16 AD fusion protein was under control of CMV promoter. Expression of the firefly luciferase reporter gene was inducible by the [Target protein/conformation sensitive peptide/VP16AD] complex.
It is a single-target, cell based assay. Briefly, expression of a reporter gene depends on the interaction of a short peptide, thereafter named 3D-Sensor, and native conformation of the target protein. Whenever the conformation of the target protein is modified, interaction between 3D-sensor and target protein is disrupted and reporter gene is not expressed anymore. Conformation modifiers are identified by loss of expression of reporter gene. NS5B 3D-Screen platform was generated in Huh-7 cell lines by transient transfection of three expression vectors encoding respectively • (i) HCV NS5BΔ21/Gal4-DBD fusion protein • (ii) the 3D-sensor peptide 14/VP16 fusion protein • (iii) the firefly luciferase reporter gene
Huh-7 cells were dissociated the day before transfection and seeded in T175 flasks at a density of 10^7 cells in 30 ml culture medium. Equimolar ratios of vectors were transfected in cell according to optimized jetPEI transfection protocol (PolyPlus Transfection, Illkirch, France) and 10 μg total DNA/10^6 cells. Transfection was performed for 2 hours at 37° C. and 5% CO2 in a humidified atmosphere. After two hours cells were dissociated and seeded in 96 wells plates at a density of 25,000 cells per well and 90 μl culture medium. 10 μl of compounds to be tested were added 2 hours after seeding. Final concentration of DMSO was 1%. Cells were incubated in the presence of compounds for 24 hours after which expression of firefly luciferase reporter gene was quantified. Briefly, culture medium was removed and cells were lysed by addition of 100 μl of lysis buffer containing 125 mM Tris Phosphate ph 7.8, 10 mM EDTA, 5 mM DTT, 50% glycerol and 5% Triton. Plates were vortexed 10 min at 1300 rpm. Cell lysat was transferred in OpaqueWhite Assay 96 well Flat Bottom plates. 100 μl of luciferin solution 1× were added to each well. Luciferin solution contained 40 mM Tris Phosphate ph 7.8, 0.2 mM EDTA, 67 mM DTT, 2.14 mM MgCl2, 5.4 mM MgSO4, 4.7×10^−4 M luciferin, 5.3×10^−4 M ATP and 2.7×10^−4 M Acetyl co enzyme A. Luminescence was immediately measured with Berthold Microlumat Plus LB 96V luminometer with an integration of 0.5 sec. Inhibition was calculated using the formula: % inhibition=(1−(read/average max))*100. Average max=signal in absence of compound

Row | Structure (SMILES) | melting point [°C] | EC50 [1] [µM]
1 | CC(C)(C)c1ccc(C2C(C(=O)CCc3ccccc3)=C(O)C(=O)N2c2ncc(S(=O)(=O)c3ccc([N+](=O)[O-])cc3)s2)cc1 (stereo not shown) | 172 | –
2 | Cc1ccc(C(=O)C2=C(O)C(=O)N(c3ncc(S(=O)(=O)c4ccc([N+](=O)[O-])cc4)s3)C2c2cccnc2)cc1 (stereo not shown) | 211 | –
3 | COC(=O)c1ccc(C2C(C(=O)c3ccc(OC)cc3)=C(O)C(=O)N2c2nnc(C)s2)cc1 (stereo not shown) | 255 to 257 | –
4 | Cc1ccc(C(=O)C2=C(O)C(=O)N(c3ncc(S(=O)(=O)c4ccc([N+](=O)[O-])cc4)s3)C2c2ccc(C(=O)O)cc2)cc1 (stereo not shown) | 308 to 309 | –
5 | COc1ccc(C(=O)C2=C(O)C(=O)N(c3nnc(C)s3)C2c2ccc(C(=O)O)cc2)cc1 (stereo not shown) | 281 | –
6 | COc1ccc(C(=O)C2=C(O)C(=O)N(c3nnc(C)s3)C2c2cccc(C(=O)O)c2)cc1 (stereo not shown) | 281 | –
7 | COc1ccc(C(=O)C2=C(O)C(=O)N(c3nnc(C)s3)C2c2ccc(C#N)cc2)cc1 (stereo not shown) | 185 | –
8 | COc1ccc(C(=O)C2=C(O)C(=O)N(c3nnc(C)s3)C2c2ccc(O)cc2)cc1 (stereo not shown) | 251 | –
9 | COC(=O)c1cccc(C2C(C(=O)c3ccc(OC)cc3)=C(O)C(=O)N2c2nnc(C)s2)c1 (stereo not shown) | 218 | –
10 | COC1=C(C(=O)c2ccc(C)cc2)C(c2ccc(C(C)C)cc2)N(c2ncc(S(=O)(=O)c3ccc([N+](=O)[O-])cc3)s2)C1=O (stereo not shown) | 237 | –
11 | COC1=C(C(=O)c2ccc(OC)cc2)C(c2ccc(C(C)(C)C)cc2)N(c2nnc(C)s2)C1=O (stereo not shown) | 235 to 237 | –
12 | Cc1ccc(C(=O)C2=C(O)C(=O)N(c3ncc(S(C)(=O)=O)s3)C2c2ccc(C(C)C)cc2)cc1 (stereo not shown) | 269 to 271 | –
13 | Cc1ccc(C(=O)C2=C(O)C(=O)N(c3ncc(S(=O)(=O)c4ccc([N+](=O)[O-])cc4)s3)C2c2ccc(C(=O)N(C)C)cc2)cc1 (stereo not shown) (as salt: hydrochloride) | 205 | –
14 | CNC(=O)c1ccc(C2C(C(=O)c3ccc(C)cc3)=C(O)C(=O)N2c2ncc(S(=O)(=O)c3ccc([N+](=O)[O-])cc3)s2)cc1 (stereo not shown) (as salt: hydrochloride) | 195 to 197 | –
15 | CNC(=O)c1cccc(C2C(C(=O)c3ccc(OC)cc3)=C(O)C(=O)N2c2nnc(C)s2)c1 (stereo not shown) (as salt: hydrochloride) | 238 | –
16 | CON=C(C1=C(O)C(=O)N(c2ncc(S(=O)(=O)c3ccc([N+](=O)[O-])cc3)s2)C1c1ccc(C(C)C)cc1)c1ccc(C)cc1 (mixture of isomers) [Example 49, 3-hydroxy-5-(4-isopropyl-phenyl)-4-{[methoxyimino]-p-tolyl-methyl}-1-[5-(4-nitro-benzenesulfonyl)-thiazol-2-yl]-1,5-dihydro-pyrrol-2-one] | 156 | 4
17 | COC(=O)c1ccc(C2C(C(=O)c3ccc(C)cc3)=C(O)C(=O)N2c2ncc(S(=O)(=O)c3ccc([N+](=O)[O-])cc3)s2)cc1 (stereo not shown) [Example 4, 4-{4-hydroxy-3-(4-methyl-benzoyl)-1-[5-(4-nitro-benzenesulfonyl)-thiazol-2-yl]-5-oxo-2,5-dihydro-1H-pyrrol-2-yl}-benzoic acid methyl ester] | 249 to 251 | 10

Row | Structure (SMILES) | melting point [°C] | EC50 [1] [µM]
18 | CC(C)c1ccc(C2C(C(=O)c3ccc(C(C)(C)C)cc3)=C(O)C(=O)N2c2ncc(S(=O)(=O)c3ccc([N+](=O)[O-])cc3)s2)cc1 (stereo not shown) [Example 9, 4-(4-tert-butyl-benzoyl)-3-hydroxy-5-(4-isopropyl-phenyl)-1-[5-(4-nitro-benzenesulfonyl)-thiazol-2-yl]-1,5-dihydro-pyrrol-2-one] | – | 4
19 | CC(C)c1ccc(C2C(C(=O)Cc3ccccc3)=C(O)C(=O)N2c2ncc(S(=O)(=O)c3ccc([N+](=O)[O-])cc3)s2)cc1 (stereo not shown) [Example 11, 3-hydroxy-5-(4-isopropyl-phenyl)-1-[5-(4-nitro-benzenesulfonyl)-thiazol-2-yl]-4-phenylacetyl-1,5-dihydro-pyrrol-2-one] | – | 12
20 | CC(C)c1ccc(C2C(C(=O)c3ccc(OC(F)(F)F)cc3)=C(O)C(=O)N2c2ncc(S(=O)(=O)c3ccc([N+](=O)[O-])cc3)s2)cc1 (stereo not shown) [Example 13, 3-hydroxy-5-(4-isopropyl-phenyl)-1-[5-(4-nitro-benzenesulfonyl)-thiazol-2-yl]-4-(4-trifluoromethoxy-benzoyl)-1,5-dihydro-pyrrol-2-one] | – | 2
21 | COc1ccc(C(=O)C2=C(O)C(=O)N(c3nncs3)C2c2ccc(C(C)(C)C)cc2)cc1 (stereo not shown) [Example 18, 5-(4-tert-butyl-phenyl)-3-hydroxy-4-(4-methoxy-benzoyl)-1-[1,3,4]thiadiazol-2-yl-1,5-dihydro-pyrrol-2-one] | 289 to 291 | 7
22 | COc1ccc(C(=O)C2=C(O)C(=O)N(c3nnc(C4CCCCC4)s3)C2c2ccc(C(C)(C)C)cc2)cc1 (stereo not shown) [Example 27] | – | 12
23 | COc1ccc(C(=O)C2=C(O)C(=O)N(c3nnc(-c4ccccc4)s3)C2c2ccc(C(C)(C)C)cc2)cc1 (stereo not shown) [Example 30, 5-(4-tert-butyl-phenyl)-3-hydroxy-4-(4-methoxy-benzoyl)-1-(5-phenyl-[1,3,4]thiadiazol-2-yl)-1,5-dihydro-pyrrol-2-one] | – | 6
24 | CC(C)c1ccc(C2C(C(=O)c3ccc(Cl)cc3)=C(O)C(=O)N2c2ncc(S(=O)(=O)c3ccc([N+](=O)[O-])cc3)s2)cc1 (stereo not shown) [Example 32] | – | 2
25 | CC(C)c1ccc(C2C(Cc3ccccc3)=C(O)C(=O)N2c2ncc(S(=O)(=O)c3ccc([N+](=O)[O-])cc3)s2)cc1 (stereo not shown) [Example 36, 4-benzyl-3-hydroxy-5-(4-isopropyl-phenyl)-1-[5-(4-nitro-benzenesulfonyl)-thiazol-2-yl]-1,5-dihydro-pyrrol-2-one] | – | 5
26 | COc1ccc(C2C(C(=O)c3ccc(Cl)cc3)=C(O)C(=O)N2c2ncc(S(=O)(=O)c3ccc([N+](=O)[O-])cc3)s2)cc1 (stereo not shown) [Example 52] | – | 6
27 | COc1ccc(C2C(C(=O)c3ccc(C)cc3)=C(O)C(=O)N2c2ncc(S(=O)(=O)c3ccc([N+](=O)[O-])cc3)s2)cc1 (stereo not shown) [Example 53] | – | 6
28 | CC(C)(C)c1ccc(C2C(C(=O)c3nccs3)=C(O)C(=O)N2c2ncc(S(=O)(=O)c3ccc([N+](=O)[O-])cc3)s2)cc1 (stereo not shown) [Example 56, 5-(4-tert-butyl-phenyl)-3-hydroxy-1-[5-(4-nitro-benzenesulfonyl)-thiazol-2-yl]-4-(thiazol-2-carbonyl)-1,5-dihydro-pyrrol-2-one] | – | < 10
29 | O=C(C1=C(O)C(=O)N(c2ncc(S(=O)(=O)c3ccc([N+](=O)[O-])cc3)s2)C1c1cccc(Br)c1)c1ccc(Cl)cc1 (stereo not shown) [Example 57] | – | 4
30 | O=C(C1=C(O)C(=O)N(c2ncc(S(=O)(=O)c3ccc([N+](=O)[O-])cc3)s2)C1c1cccc(Cl)c1)c1ccc(Cl)cc1 (stereo not shown) [Example 59] | – | 14
31 | Cc1ccc(C(=O)C2=C(O)C(=O)N(c3ncc(S(=O)(=O)c4ccc([N+](=O)[O-])cc4)s3)C2c2ccc(Cl)cc2)cc1 (stereo not shown) [Example 60] | – | 13
32 | COC(=O)c1sc(N2C(=O)C(O)=C(C(=O)c3ccc(Cl)cc3)C2c2ccc(C(C)(C)C)cc2)nc1C (stereo not shown) [Example 62] | – | 20
33 | Cc1ccc(C2C(C(=O)c3ccc(Cl)cc3)=C(O)C(=O)N2c2ncc(S(=O)(=O)c3ccc([N+](=O)[O-])cc3)s2)cc1 (stereo not shown) [Example 66] | – | 14
34 | Cc1ccc(C(=O)C2=C(O)C(=O)N(c3ncc(S(=O)(=O)c4ccc([N+](=O)[O-])cc4)s3)C2c2ccc(C)cc2)cc1 (stereo not shown) [Example 124] | – | 7

— US20120189579A1 (priority 2009, published 2012)
